The values that follow come from article PMC5701749 (Biochemistry, 2017).

The target in data set [1] is T1, mouse P-gp mdr1a (Mus musculus, UniProt P21447). The settings on record: DMPC nanodiscs; for V2 (rate of ATP hydrolysis at infinite substrate concentration): footnote a = parameter reaching constraint set at >0; for K1 (substrate concentration for half-maximal stimulation of ATPase activity): footnote d = ambiguous, lack of ATPase stimulation.
Data set [2] deals with T2, murine P-gp (Mus musculus, UniProt P21447). The following applies: for displacement of BD-verapamil from P-gp (in words) / displacement of BD-vinblastine from P-gp (in words): FCS competition; for n (Hill coefficient): drug displacing BD-vinblastine from P-gp nanodiscs.
The target in data set [3] is T2, murine P-gp. As to the kind of experiment: biochemical.
A short description of data set [4]: FCS binding of fluorescent probes to empty nanodiscs. The following applies: ND = not determined because of minimal binding.
Data set [5] addresses T2, murine P-gp.
Data set [6] addresses T1, mouse P-gp mdr1a. The settings on record: E. coli lipid nanodiscs; for V1 (maximal rate of ATP hydrolysis when there is only activation): footnote b = parameter held constant.
For data set [7], the target named is T2, murine P-gp. Type of data set: biochemical. The settings on record: inside-out murine P-gp vesicles, ATP-dependent, 117 nM Flutax-2, 37 °C.
Another data set deals with mouse P-gp (Mus musculus, UniProt P21447). The experiment in a line: ATPase assay in mouse P-gp vesicles. Type of data set: biochemical. The following applies: concentration range studied.
Setting [8] is: ATP and Vi (1 mM ATP, 240 μM Vi), vanadate-trapped, apparent KD.
Setting [9] is: apo (control), nucleotide-free, apparent KD, high-affinity site.

Where “and” joins values, the source holds several entries; their conditions need not be identical. Identical values can stand only once. Like-named read-outs stand apart in the source and are kept apart here. A value given as a limit tells only on which side of the number the result lay.

As a reminder, the IC50 is the concentration that gives 50% inhibition.

T2 sequence (P21447 whole entry): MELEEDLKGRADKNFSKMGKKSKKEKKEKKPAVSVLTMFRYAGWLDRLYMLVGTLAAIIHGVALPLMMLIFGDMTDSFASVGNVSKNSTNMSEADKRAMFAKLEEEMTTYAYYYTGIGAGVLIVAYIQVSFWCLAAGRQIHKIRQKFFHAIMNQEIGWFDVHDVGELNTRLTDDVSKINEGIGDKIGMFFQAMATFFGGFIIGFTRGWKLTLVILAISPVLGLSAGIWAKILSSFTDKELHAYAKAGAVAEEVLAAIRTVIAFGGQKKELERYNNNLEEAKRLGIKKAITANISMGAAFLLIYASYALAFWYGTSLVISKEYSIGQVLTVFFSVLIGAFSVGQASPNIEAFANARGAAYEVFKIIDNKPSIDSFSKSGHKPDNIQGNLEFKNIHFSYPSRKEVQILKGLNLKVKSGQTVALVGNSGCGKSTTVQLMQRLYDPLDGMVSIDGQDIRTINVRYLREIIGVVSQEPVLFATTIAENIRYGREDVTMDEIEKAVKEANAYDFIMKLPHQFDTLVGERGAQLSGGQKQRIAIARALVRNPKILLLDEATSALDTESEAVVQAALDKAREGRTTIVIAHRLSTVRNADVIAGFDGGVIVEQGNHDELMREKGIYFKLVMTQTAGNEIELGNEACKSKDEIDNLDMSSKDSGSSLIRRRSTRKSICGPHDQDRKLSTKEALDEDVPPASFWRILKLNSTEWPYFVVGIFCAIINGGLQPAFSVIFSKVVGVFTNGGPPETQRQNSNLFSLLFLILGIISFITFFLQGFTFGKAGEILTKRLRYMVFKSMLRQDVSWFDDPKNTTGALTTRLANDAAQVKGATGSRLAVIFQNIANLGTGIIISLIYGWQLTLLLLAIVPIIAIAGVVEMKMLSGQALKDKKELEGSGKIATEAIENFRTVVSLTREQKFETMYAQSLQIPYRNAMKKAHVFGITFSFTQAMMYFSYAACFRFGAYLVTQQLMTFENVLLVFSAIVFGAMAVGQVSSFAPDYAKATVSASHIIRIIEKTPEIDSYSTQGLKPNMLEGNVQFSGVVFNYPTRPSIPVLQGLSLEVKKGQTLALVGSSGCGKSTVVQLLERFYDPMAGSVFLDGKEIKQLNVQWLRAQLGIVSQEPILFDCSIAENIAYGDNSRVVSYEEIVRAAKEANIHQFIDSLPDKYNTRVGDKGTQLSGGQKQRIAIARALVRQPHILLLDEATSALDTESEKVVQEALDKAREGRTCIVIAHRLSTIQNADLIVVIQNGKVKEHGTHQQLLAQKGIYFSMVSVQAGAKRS
T1 sequence (P21447 whole entry): as above
Sequence of mouse P-gp (P21447 whole entry): as above

As to `CC(=O)O[C@H]1C(=O)[C@@]2(C)[C@H]([C@H](OC(=O)c3ccccc3)[C@]3(O)C[C@H](OC(=O)[C@H](O)[C@@H](NC(=O)c4ccccc4)c4ccccc4)C(C)=C1C3(C)C)[C@]1(OC(C)=O)CO[C@@H]1C[C@@H]2O` [paclitaxel], on mouse P-gp mdr1a [1], the “V2 (rate of ATP hydrolysis at infinite substrate concentration)” value is listed as 48 ± 6 nmol of Pi min^−1 mg^−1 and the “K1 (substrate concentration for half-maximal stimulation of ATPase activity)” value turned out to be 1.3 ± 0.5 µM. Besides, on murine P-gp [2], the “displacement of BD-verapamil from P-gp (in words)” value is reported as “did not displace”, the “displacement of BD-vinblastine from P-gp (in words)” value is reported as “displaced” and the “n (Hill coefficient)” value amounted to 0.5 ± 0.5.

In the case of `CC[C@]1(O)C[C@@H]2CN(CCc3c([nH]c4ccccc34)[C@@](C(=O)OC)(c3cc4c(cc3OC)N(C)[C@H]3[C@@](O)(C(=O)OC)[C@H](OC(C)=O)[C@]5(CC)C=CCN6CC[C@]43[C@@H]65)C2)C1` [vinblastine], at mouse P-gp mdr1a [1], the “V2 (rate of ATP hydrolysis at infinite substrate concentration)” value is >0 ^a nmol of Pi min^−1 mg^−1 and the “K1 (substrate concentration for half-maximal stimulation of ATPase activity)” value was found to be 2.6 ± 1.0 µM. Moreover, at murine P-gp [2], the “displacement of BD-verapamil from P-gp (in words)” value is on record as “displaced”, the “displacement of BD-vinblastine from P-gp (in words)” value is “displaced” and the “n (Hill coefficient)” value is 0.4± 0.1. The same compound showed an IC50 at murine P-gp [3] of 17500 ± 11000 nM.

In the case of BODIPY FL verapamil [BD-verapamil], the KD result in data set [4] is recorded as “negligible binding”.

Consider BODIPY vinblastine [BD-vinblastine], for which the Kd in data set [4] is 1700 nM and 1670 nM; at murine P-gp [5] (AMP-PNP (1 mM), apparent KD) it was 83 ± 12 nM; at murine P-gp [5] (setting [8]) it was 290 ± 40 nM; on murine P-gp [5] (setting [9]), 42 ± 6 nM. In addition, the “increase in KD (decrease in affinity) with AMP-PNP” value on murine P-gp [5] (AMP-PNP vs nucleotide-free) was 1.9 fold and 2 fold. In addition, the “increase in KD (decrease in affinity) in vanadate-trapped state” value on murine P-gp [5] (ATP and Vi vs nucleotide-free) is reported as 6.8 fold. Also, the “stimulation of ATP hydrolysis over basal ATPase activity” value on mouse P-gp mdr1a [1] is on record as ~ 2 fold. Also, the “V2 (rate of ATP hydrolysis at infinite substrate concentration)” value was 21 ± 4 nmol of Pi min^−1 mg^−1 on mouse P-gp mdr1a [1] and 156.5 ± 24.8 nmol of Pi min^−1 mg^−1 at mouse P-gp mdr1a [6]. The “stimulation of ATPase activity (in words)” value on mouse P-gp mdr1a [6] is recorded as “Neither BD-vinblastine or Flutax-2 stimulated ATPase activity”. Further, the “V1 (maximal rate of ATP hydrolysis when there is only activation)” value at mouse P-gp mdr1a [6] was 465 ^b nmol of Pi min^−1 mg^−1.

Regarding Oregon Green 488 Paclitaxel [Flutax-2], the Kd is 3600 nM and 3630 nM in data set [4]; 530 ± 90 nM at murine P-gp [5] (AMP-PNP (1 mM), apparent KD); 490 ± 80 nM on murine P-gp [5] (setting [8]); 520 ± 90 nM on murine P-gp [5] (setting [9]); 519 nM at murine P-gp [5] (nucleotide-free, high-affinity interaction). In addition, the initial transport rate on murine P-gp [7] is ~42 pmol (mg of total protein)^−1 min^−1. In addition, the “stimulation of ATPase activity (in words)” value was “does not stimulate ATPase activity” on mouse P-gp mdr1a [1], “did not stimulate ATPase activity” on mouse P-gp and “no stimulation” on mouse P-gp mdr1a [6]. The “V2 (rate of ATP hydrolysis at infinite substrate concentration)” value at mouse P-gp mdr1a [1] is 18 ± 2 nmol of Pi min^−1 mg^−1; at mouse P-gp mdr1a [6] it was 33.2 ± 46.8 nmol of Pi min^−1 mg^−1. The “K1 (substrate concentration for half-maximal stimulation of ATPase activity)” value on mouse P-gp mdr1a [1] is recorded as 0.3 ± 0.7 ^d μM; at mouse P-gp mdr1a [6] (footnote d = ambiguous, lack of ATPase stimulation) it was 0.2 ± 0.3 ^d μM. Moreover, the “V1 (maximal rate of ATP hydrolysis when there is only activation)” value on mouse P-gp mdr1a [6] is reported as 500 ^b nmol of Pi min^−1 mg^−1.
